Results on 25 compounds are retold here after patent publication US20250346593A1, “IMIDAZO(1,2-1)PYRIDINE DERIVATIVES AS RIPK2 INHIBITORS” (Interline Therapeutics, Inc., priority 2022, published 2025).

pIC50: −log10 of the molar value. Where two headings read alike, the source gives them in different places.

In experiment [1] the test system is NF-κB pathway (SEAP) in THP1-Dual cells. Put plainly: THP-1 Dual cell SEAP assay (L18-MDP stimulated). The class given is cell-based. Conditions: Homo sapiens, THP1-Dual, read-out: NFkB THP1 IC50.
Experiment [2] has as its target GST-RIPK2 fusion protein (human RIPK2 amino acids 1-310) (Homo sapiens (Human), UniProt O43353). Put plainly: RIPK2 binding competition assay (TR-FRET, Tracer 199). A general note: In TR-FRET formats the signal depends on donor and acceptor labels being close together.
The mark [3] stands for this setting: read-out: RIPK2 IC50, RIPK2 binding competition assay.

Chain of GST-RIPK2 fusion protein (human RIPK2 amino acids 1-310) (O43353 1-310): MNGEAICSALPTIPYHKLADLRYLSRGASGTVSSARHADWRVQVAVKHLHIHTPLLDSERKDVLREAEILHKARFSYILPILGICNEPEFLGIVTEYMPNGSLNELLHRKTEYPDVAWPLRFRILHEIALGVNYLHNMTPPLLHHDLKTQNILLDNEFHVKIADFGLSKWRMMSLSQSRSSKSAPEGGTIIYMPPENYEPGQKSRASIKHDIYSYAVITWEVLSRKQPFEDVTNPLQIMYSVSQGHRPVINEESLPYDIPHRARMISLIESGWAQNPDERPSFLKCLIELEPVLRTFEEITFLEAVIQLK

Turning to `COc1cc2ncc(-c3cc(F)nc(OCCCO)c3)n2cc1S(=O)(=O)C(C)(C)C` [Example 129, 3-({6-fluoro-4-[7-methoxy-6-(2-methylpropane-2-sulfonyl)imidazo[1,2-a]pyridin-3-yl]pyridin-2-yl}oxy)propan-1-ol], the pIC50 in experiment [1] was below 6.00; in experiment [2] (setting [3]) it was below 7.70.
On the same counts, the results for `CC(C)(C)S(=O)(=O)c1ccn2ncc(-c3ccc(N)nc3)c2c1` [Example 26, 5-(5-(tert-butylsulfonyl)pyrazolo [1,5-a]pyridin-3-yl)pyridin-2-amine] are below 6.00 and below 7.70.
`CCS(=O)(=O)Nc1cc(-c2cnc3cc(OC)c(S(=O)(=O)C(C)(C)C)cn23)cc(F)c1OC` [Example 294, N-(5-(6-(tert-butylsulfonyl)-7-methoxyimidazo[1,2-a]pyridin-3-yl)-3-fluoro-2-methoxyphenyl)ethane-sulfonamide]: the pIC50 is above 7.30 in experiment [1] and above 9.00 in experiment [2].
The matching figures for `COc1cc2ncc(-c3cc(F)nc(NCc4cc[nH]c(=O)c4)c3)n2cc1S(=O)(=O)C(C)(C)C` [Example 199, 4-(((4-(6-(tert-butylsulfonyl)-7-methoxyimidazo[1,2-a]pyridin-3-yl)-6-fluoropyridin-2-yl)amino)methyl) pyridin-2(1H)-one]: 6.60 to 7.30 and 8.60 to 9.00.
Take `COc1cc2ncc(-c3cc(F)nc(NCC4CCC(=O)NC4)c3)n2cc1S(=O)(=O)C(C)(C)C` (centres unmarked) [Example 185, 5-(((4-(6-(tert-butylsulfonyl)-7-methoxyimidazo[1,2-a]pyridin-3-yl)-6-fluoropyridin-2-yl)amino)methyl) piperidin-2-one]: the pIC50 in experiment [1] was above 7.30; in experiment [2] (setting [3]) it was above 9.00.
In the case of `COc1cc2ncc(-c3cc(F)c(OC)c(CCO)c3)n2cc1S(=O)(=O)C(C)(C)C` [Example 59, 2-(5-(6-(tert-butylsulfonyl)-7-methoxyimidazo[1,2-a]pyridin-3-yl)-3-fluoro-2-methoxyphenyl)ethan-1-ol], the pIC50 in experiment [1] was 6.00 to 6.60; in experiment [2] it was 7.70 to 8.60.
For `CCCS(=O)(=O)Nc1cc(OC)cc(-c2cnn3ccc(S(=O)(=O)C(C)(C)C)cc23)c1` [Example 283, N-(3-(5-(tert-butylsulfonyl)pyrazolo[1,5-a]pyridin-3-yl)-5-methoxyphenyl)propane-1-sulfonamide], the pIC50 was 6.00 to 6.60 in experiment [1] and 7.70 to 8.60 in experiment [2].
Regarding `COc1cc2ncc(-c3cnc(N)cc3F)n2cc1S(=O)(=O)C(C)(C)C` [Example 21, 5-(6-(tert-butylsulfonyl)-7-methoxyimidazo[1,2-a]pyridin-3-yl)-4-fluoropyridin-2-amine], the figures for the negative logarithm of the IC50 (pIC50) in experiment [1] and in experiment [2] (setting [3]) were below 6.00 and below 7.70, respectively.
On the same counts, the results for `COc1cc2ncc(-c3ccc(OC)c(Cl)n3)n2cc1S(=O)(=O)C(C)(C)C` [Example 158, 6-(tert-butylsulfonyl)-3-(6-chloro-5-methoxypyridin-2-yl)-7-methoxyimidazo[1,2-a]pyridine] are below 6.00 and below 7.70.
On the same counts, the results for `COc1cc(N)ncc1-c1cnc2cc(OC)c(S(=O)(=O)C(C)(C)C)cn12` [Example 78, 5-(6-(tert-butylsulfonyl)-7-methoxyimidazo[1,2-a]pyridin-3-yl)-4-methoxypyridin-2-amine] are below 6.00 and below 7.70.
For the compound `COc1cc(-c2cnc3cc(OC)c(S(=O)(=O)C(C)(C)C)cn23)ccc1N` [Example 87, 4-(6-(tert-butylsulfonyl)-7-methoxyimidazo[1,2-a]pyridin-3-yl)-2-methoxyaniline], the results for the pIC50 in experiment [1] and in experiment [2] were below 6.00 and 7.70 to 8.60, respectively.
In the case of `COc1cc2ncc(-c3cc(C#N)c(N)cc3F)n2cc1S(=O)(=O)C(C)(C)C` [Example 80, 2-amino-5-(6-(tert-butylsulfonyl)-7-methoxyimidazo[1,2-a]pyridin-3-yl)-4-fluorobenzonitrile], the pIC50 in experiment [1] is 6.00 to 6.60; in experiment [2], 7.70 to 8.60.
On to `COc1cc2ncc(-c3cnc(N)nc3)n2cc1S(=O)(=O)C(C)(C)C` [Example 93, 5-(6-(tert-butylsulfonyl)-7-methoxyimidazo[1,2-a]pyridin-3-yl)pyrimidin-2-amine], for which the pIC50 in experiment [1] was below 6.00; in experiment [2] (setting [3]), below 7.70.
For the compound `COc1cc2ncc(-c3cnc(N)c(F)c3)n2cc1S(=O)(=O)C(C)(C)C` [Example 73, 5-(6-(tert-butylsulfonyl)-7-methoxyimidazo[1,2-a]pyridin-3-yl)-3-fluoropyridin-2-amine], the figures for the pIC50 in experiment [1] and in experiment [2] (setting [3]) were below 6.00 and below 7.70, respectively.
For the compound `COc1cc2ncc(-c3ccc(OC)c(NCCCO)n3)n2cc1S(=O)(=O)C(C)(C)C` [Example 312, 3-((6-(6-(tert-butylsulfonyl)-7-methoxyimidazo[1,2-a]pyridin-3-yl)-3-methoxypyridin-2-yl)amino)propan-1-ol], the pIC50 in experiment [1] is 6.00 to 6.60; in experiment [2], 7.70 to 8.60.
Turning to `COc1cc2ncc(-c3cc(F)c(N)nc3O)n2cc1S(=O)(=O)C(C)(C)C` [Example 167, 6-amino-3-(6-(tert-butylsulfonyl)-7-methoxyimidazo[1,2-a]pyridin-3-yl)-5-fluoropyridin-2-ol], the values for the pIC50 in experiment [1] and in experiment [2] (setting [3]) were below 6.00 and below 7.70, respectively.
Consider `COc1cc2ncc(-c3cc(F)c(OC)c(NS(C)(=O)=O)c3)n2cc1S(=O)(=O)C(C)(C)C` [Example 272, N-(5-(6-(tert-butylsulfonyl)-7-methoxyimidazo[1,2-a]pyridin-3-yl)-3-fluoro-2-methoxyphenyl)methane-sulfonamide], for which the pIC50 in experiment [1] is 6.60 to 7.30; in experiment [2] it was 8.60 to 9.00.
With `COc1cc2ncc(-c3cnc(N)c(N)n3)n2cc1S(=O)(=O)C(C)(C)C` [Example 128, 5-(6-(tert-butylsulfonyl)-7-methoxyimidazo[1,2-a]pyridin-3-yl)pyrazine-2,3-diamine], the values for the pIC50 in experiment [1] and in experiment [2] (setting [3]) were below 6.00 and below 7.70, respectively.
As to `CC(C)(C)S(=O)(=O)c1ccc2ncc(-c3cc(F)nc(NCCC4(O)CCC4)c3)n2c1` [Example 171, 1-(2-((4-(6-(tert-butylsulfonyl)imidazo [1,2-a]pyridin-3-yl)-6-fluoropyridin-2-yl)amino)ethyl)cyclo-butan-1-ol], the values for the pIC50 in experiment [1] and in experiment [2] were above 7.30 and 8.60 to 9.00, respectively.
Regarding `CCOc1cc2ncc(-c3cc(F)c(N)nc3C)n2cc1S(=O)(=O)C(C)C` [Example 155, 5-(7-ethoxy-6-(isopropylsulfonyl)imidazo [1,2-a]pyridin-3-yl)-3-fluoro-6-methylpyridin-2-amine], the negative logarithm of the IC50 (pIC50) in experiment [1] was below 6.00; in experiment [2] (setting [3]), below 7.70.
On to `COc1cc2ncc(-c3cc(N)c(OCCO)c(F)c3)n2cc1S(=O)(=O)C(C)(C)C` [Example 64, 2-(2-amino-4-(6-(tert-butylsulfonyl)-7-methoxyimidazo[1,2-a]pyridin-3-yl)-6-fluorophenoxy)ethan-1-ol], for which the pIC50 in experiment [1] was 6.60 to 7.30; in experiment [2], 7.70 to 8.60.
The matching figures for `COc1cc2ncc(-c3cc(Cl)c(N)nc3OC)n2cc1S(=O)(=O)C(C)(C)C` [Example 102, 5-(6-(tert-butylsulfonyl)-7-methoxyimidazo[1,2-a]pyridin-3-yl)-3-chloro-6-methoxypyridin-2-amine]: 6.00 to 6.60 and 7.70 to 8.60.
As to `COc1cc2ncc(-c3cc(F)nc(N4CCC(O)CC4)c3)n2cc1S(=O)(=O)C(C)(C)C` [Example 207, 1-(4-(6-(tert-butylsulfonyl)-7-methoxyimidazo[1,2-a]pyridin-3-yl)-6-fluoropyridin-2-yl)piperidin-4-ol], the pIC50 in experiment [1] is above 7.30; in experiment [2] it was 8.60 to 9.00.
The matching figures for `COc1cc2ncc(-c3cc(N)cc(OC(F)F)c3)n2cc1S(=O)(=O)C(C)(C)C` [Example 42, 3-(6-(tert-butylsulfonyl)-7-methoxyimidazo[1,2-a]pyridin-3-yl)-5-(difluoromethoxy)aniline]: 6.00 to 6.60 and 7.70 to 8.60.
On the same counts, the results for `CCCS(=O)(=O)Nc1cc(OC(F)(F)F)cc(-c2cnc3cc(OC)c(S(=O)(=O)C(C)(C)C)cn23)c1` [Example 135, N-{3-[7-methoxy-6-(2-methylpropane-2-sulfonyl)imidazo[1,2-a]pyridin-3-yl]-5-(trifluoromethoxy)phenyl}propane-1-sulfonamide] are below 6.00 and 7.70 to 8.60.

One may read the pIC50 as −log10 of the IC50, conventionally taken in molar units.
